# Measurements reported in PMC6627779, “Experimental Approaches and Computational Modeling of Rat Serum Albumin and Its Interaction with Piperine” (International Journal of Molecular Sciences, 2019).
# Target: T1, rat serum albumin (RSA) (Rattus norvegicus, UniProt P02770)
# T1 construct: gene Alb
# Test: Trp214 fluorescence quenching titration (steady-state, double-log Ka; IDF/Scatchard Kb […] ^−[…]), static mechanism confirmed by time-resolved fluorescence
# Format: binding
# Settings: read-out: Ka (×10^4 M^-1) (converted)
# T1 sequence (P02770 25-608): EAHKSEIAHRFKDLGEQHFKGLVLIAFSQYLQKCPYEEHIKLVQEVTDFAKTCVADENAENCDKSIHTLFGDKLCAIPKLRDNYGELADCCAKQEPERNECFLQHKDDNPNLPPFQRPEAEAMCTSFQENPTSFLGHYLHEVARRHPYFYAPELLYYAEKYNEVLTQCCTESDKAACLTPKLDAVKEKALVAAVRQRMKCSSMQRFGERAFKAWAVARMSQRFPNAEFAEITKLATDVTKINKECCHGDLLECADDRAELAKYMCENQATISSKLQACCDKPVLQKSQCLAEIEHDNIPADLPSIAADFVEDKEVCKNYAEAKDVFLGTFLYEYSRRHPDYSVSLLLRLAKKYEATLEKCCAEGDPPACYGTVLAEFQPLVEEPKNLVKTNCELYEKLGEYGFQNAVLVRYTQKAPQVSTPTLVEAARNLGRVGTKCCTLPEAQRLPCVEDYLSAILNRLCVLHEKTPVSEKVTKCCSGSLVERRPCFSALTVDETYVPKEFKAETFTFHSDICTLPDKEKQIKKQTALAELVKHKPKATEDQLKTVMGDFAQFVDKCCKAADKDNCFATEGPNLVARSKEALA
smiles,measurement,value
O=C(/C=C/C=C/c1ccc2c(c1)OCO2)N1CCCCC1 [piperine],Kd,25.6 µM
